Test results published in paper PMC6566782, “Prodrugs for Skin Delivery of Menahydroquinone-4, an Active Form of Vitamin K2(20), Could Overcome the Photoinstability and Phototoxicity of Vitamin K2(20)” (International Journal of Molecular Sciences, 2019).
Structures can show the parent of a compound that is named as a salt. Where two headings read alike, the source gives them in different places.

Key:
[1] = system: hepatocellular carcinoma (HCC) cells; design: method as in PMID 30013007; settings: compared with MK-4 ref 17; cited from earlier work
[2] = Photostability in ethanol under monochromatic light of different wavelengths, LC-MS/MS; type: physicochemical; design: key: -: No decomposition; settings: 1 µM in ethanol, 25 °C
Description: To evaluate the effect of irradiation wavelength on photostability of MK-4 and MKH-ester derivatives, 1 μM solutions of MK-4, MKH-DMG, and MKH-SUC in ethanol were irradiated with a xenon light source monochromatic light at 279, 341, 373, 404, or 435 nm, and the concentration of each compound was measured by LC-MS/MS. The log of concentration of each compound was plotted against irradiation energy (Figure 3), and the rates and half-life energies of degradation were obtained from slopes (Table 2). […] Hydrolytic degradations of MKH-DMG and MKH-SUC to their corresponding monoesters were accelerated only at the short wavelength of 279 nm (Figure 3B,C).
(§1) Solutions of MK-4 and MKH derivatives in ethanol (1 µM) were irradiated with artificial sunlight (SOLAX 100 W XC-100 B, Seric Ltd., Tokyo, Japan) at 12,000 lx in quartz cells. Illuminance was measured using a digital luminometer (LX-1108, Mother Tool). Irradiation samples (1 µM in ethanol) were irradiated with artificial sunlight at 12,000 lx, and with monochromatic light (279, 341, 373, 404, and 435 nm) using a multi-wavelength irradiation spectrometer (MM 3, Bunkoukeiki Co., Ltd., Tokyo, Japan). Irradiation intensity was measured using an irradiation energy measurement power meter (MM 3, Bunkoukeiki Co., Ltd.).
(§2) LC-MS/MS was performed using an LCMS-8050 Liquid Chromatograph Mass Spectrometer (Shimadzu, Kyoto, Japan) and Shimadzu HPLC System (system controller (CBM-20A), pump (LD-20AD), degasser (DGU-20As), UV detector (SPD-20A), and auto injector (SIL-20AC HT)). Separations were performed on a CAPCELL PAK C18 UG120 (3 μm, 2.0 mm × 100 mm, Shiseido Co., Ltd., Tokyo, Japan) using a mobile phase of 10 mmol/L ammonium acetate and 0.1% acetic acid in methanol and water (97:3) at a flow rate of 0.4 mL/min. Column temperature was maintained at 40 °C. The mass spectrometer was equipped with an electrospray ionization and was run in positive ion mode. Identification and quantitation were based on MS/MS-multiple reaction monitoring mode using transition ions as follows: m/z 445 → 187 for the [M+H]^+ MK-4 adduct, m/z 445 → 187 for the [M + H]^+ chromenol adduct, 619 → 58 for the [M + H]^+ MKH-DMG adduct, m/z 532 → 58 for the [M + H]^+ MKH-mono-DMG adduct, m/z 664 → 187 for the [M + H]^+ MKH-SUC adduct, m/z 564 → 187 for the [M + H]^+ MKH-mono-SUC adduct, and m/z 461 → 81 for the [M + H]^+ MKO adduct.

[3] = design: method as in PMID 7724483; settings: physiological pH 7.4 ref 14; cited from earlier work
[4] = Photostability in ethanol under artificial sunlight (12,000 lx), LC-MS/MS; type: physicochemical; settings: for main degradation product: sunlight irradiation (MKH-SUC also under shading); for photostability relative to MK-4: ethanol; for half-life at 1 µM: ethanol solution in quartz cells, read-out: half-life (t1/2) of degradation (converted)
Description: The relative irradiance of artificial sunlight at wavelengths of 300 to 800 nm is almost equal to that of natural sunlight, according to the manufacturer. […] MKH-SUC concentration decreased according to an apparent first order rate both with and without shading, although the rate of decrease was accelerated without shading. MKH-DMG and MKH-SUC were more photostable than MK-4 by ca. 50- and 3-fold, respectively.
as §1, §2

HaCaT cells [5] = experiment: Intracellular ROS generation assay (DCFH-DA) with or without UVA irradiation; type: cell-based, Human; settings: UVA irradiation 15 J/cm^2
Description: (§3) The in vitro phototoxicity of MK-4 and MKH derivatives were assessed by measuring the intracellular ROS generation and the viability of human epidermal keratinocyte cells (HaCaT) after UVA irradiation in the presence or absence of MK-4 and MKH derivatives. Intracellular ROS generation was determined using the cell permeable probe 2′,7′-dichlorofluorescein diacetate (DCFH-DA), which rapidly reacts with hydroxyl radicals. Cells without drug treatment or UVA irradiation were used as the control. ROS generation and cell viability are shown in Figure 5 and Figure 6, respectively.
Intracellular ROS generation was measured using 2′,7′-dichlorofluorescein diacetate (DCFH-DA; Invitrogen, Carlsbad, CA, USA) as a fluorescent probe. HaCaT cells were seeded at 1.0 × 10^5 cells/well in 96-well plates and cultured overnight. Thereafter, cells were washed with PBS and incubated with 10 µM DCFH-DA solution in PBS at 37 °C for 1 h. Following incubation, test compound solutions in PBS described above were added to each well and re-incubated for 1 h. After incubation, cells were irradiated with UVA at an irradiation intensity of 15 J/cm^2 and the fluorescence intensity (Ex: 485 nm, Em: 530 nm) was measured using an Infinite M200 PRO (Tecan Life Sciences).

[6] = Singlet oxygen generation assay (p-nitrosodimethylaniline-based ROS assay) after UVA irradiation; type: physicochemical; settings: phosphate-buffered aqueous solution pH 7.4, UVA irradiation 0–15 J/cm^2
Description: It has been reported that singlet oxygen promotes the peroxidation of skin surface lipids, resulting in the induction of skin inflammation. Thus, we measured the irradiation intensity-dependent generation of singlet oxygen by MK-4, MKH-DMG, and MKH-SUC in phosphate-buffered aqueous solution after UVA irradiation using a p-nitrosodimethylaniline-based ROS assay (Figure 4).
MK-4 and MKH derivatives were dissolved in a phosphate buffer (NaPB, pH 7.4) containing 0.2% polyoxyethylene hydrogenated castor oil 40 (HCO 40, obtained as a gift sample from Nikko Chemicals Co., Ltd., Osaka, Japan), 2% dimethyl sulfoxide, and 0.1% glycerol. The solutions were treated according to the singlet oxygen assay method (The Japanese Center for the Validation of Alternative Methods, JaCVAM) and irradiated with UVA light from a CL-1000L UV Crosslinker (UVP, Upland, CA, USA). Absorbance was measured using an Infinite M200 PRO (Tecan Life Sciences, Zurich, Switzerland).

HaCaT cells [7] = experiment: Cell viability assay (CellTiter-Glo) 24 h after UVA irradiation; type: cell-based, Human; settings: 24 h after UVA irradiation 15 J/cm^2
Description: as §3
HaCaT cells were seeded at 1.0 × 10^5 cells/well in 96-well plates and cultured overnight. Thereafter, cells were washed with PBS, and test compound solutions in PBS described above were added to each well and re-incubated for 1 h. After incubation, cells were irradiated with UVA at an irradiation intensity of 15 J/cm^2. After irradiation, cells were washed twice with PBS and replaced in culture medium. After 24 h incubation, cell viability was measured using a CellTiter-Glo® Luminescent Cell Viability Assay (Promega, Madison, WI, USA).

cultured epidermis = system: cultured epidermis; design: method as in doi:10.2772/23121; settings: UVA irradiation ref 13; cited from earlier work
[8] = 1 µM in ethanol, artificial sunlight 12,000 lx, 25 °C
[9] = artificial sunlight 12,000 lx, 25 °C
[10] = 1 µM in ethanol, shading (covered with aluminum foil during irradiation), 25 °C

Compound | delivery of MKH into HCC cells [1] | rate constant (k) of degradation ([2]; monochromatic light 279 nm) [J^−1·cm^2] | rate constant (k) of degradation ([2]; monochromatic light 341 nm) | rate constant (k) of degradation ([2]; monochromatic light 373 nm) | rate constant (k) of degradation ([2]; monochromatic light 404 nm) | rate constant (k) of degradation ([2]; monochromatic light 435 nm) | apparent first order rate constant (k) of degradation [4, 8] [h⁻¹] | main degradation product ([4]; 1 µM in ethanol) | photostability relative to MK-4 [4, 9] | half-life at 1 µM [4, 8] [min] | intracellular ROS level (HaCaT cells [5]) | singlet oxygen generation [6] | cell viability (HaCaT cells [7]) | also measured
CC(C)=CCC/C(C)=C/CC/C(C)=C/CC/C(C)=C/Cc1c(C)c(OC(=O)CN(C)C)c2ccccc2c1OC(=O)CN(C)C [MKH-DMG, menahydroquinone-4 1,4-bis-N,N-dimethylglycinate hydrochloride] | more effectively than MK-4 | 0.146 | - ^b | - ^b | - ^b | - ^b | 0.167 | MKH-mono-DMG | ca. 50 fold | 249 | no significant changes | little generation of singlet oxygen | unaffected | half-life energy (E1/2) of degradation ([2]; monochromatic light 341 nm): - ^b; half-life energy (E1/2) of degradation ([2]; monochromatic light 373 nm): - ^b; half-life energy (E1/2) of degradation ([2]; monochromatic light 404 nm): - ^b; half-life energy (E1/2) of degradation ([2]; monochromatic light 435 nm): - ^b; partition coefficient (log P) [3]: 3.66; concentration change under shading ([4]; 1 µM in ethanol, shading, 25 °C): unchanged under shading
COc1cc(O)c(C(=O)c2ccccc2)cc1S(=O)(=O)O [sulisobenzone, reference compound] | – | – | – | – | – | – | – | – | – | – | – | little generation of singlet oxygen | – | –
CC(C)=CCC/C(C)=C/CC/C(C)=C/CC/C(C)=C/Cc1c(C)c(OC(=O)CCC(=O)O)c2ccccc2c1OC(=O)CCC(=O)O [MKH-SUC, menahydroquinone-4 1,4-bis-hemisuccinate] | more effectively than MK-4 | 0.110 | 0.069 J^−1·cm^2 | 0.059 J^−1·cm^2 | 0.061 J^−1·cm^2 | 0.068 J^−1·cm^2 | 2.796 | MKH-mono-SUC | ~3 fold | 14.9 | no significant changes | little generation of singlet oxygen | unaffected | apparent first order rate constant (k) of degradation [4, 10]: 0.883 h⁻¹; half-life at 1 µM [4, 10]: 47.1 min
CC1=C(C/C=C(\C)CCC[C@H](C)CCC[C@H](C)CCCC(C)C)C(=O)c2ccccc2C1=O [vitamin K1] | – | – | – | – | – | – | – | – | – | – | – | – | – | phototoxicity against cultured epidermis (cultured epidermis): exhibits phototoxicity
